Test results taken from patent publication US20170315126A1, “METHOD FOR SCREENING COMPOUND SPECIFICALLY SUPPRESSING FORMATION OF CAVEOLAE OF CANCER CELLS, SCREENING KIT, VECTOR AND TRANSFORMANT TO BE USED IN KIT, AND METHOD FOR SELECTING PATIENT FOR WHOM MOLECULARLY TARGETED DRUG IS INDICATED” (NATIONAL UNIVERSITY CORPORATION NAGOYA INSTITUTE OF …, priority 2014, published 2017).
Like-named read-outs stand apart in the source and are kept apart here. Values belong to the molecule of their own block, whether it stands above or below them.

B3: human Cavin-1 (other, UniProt Q6NZI2 1-390, looked up)
chain: MEDPTLYIVERPLPGYPDAEAPEPSSAGAQAAEEPSGAGSEELIKSDQVNGVLVLSLLDKIIGAVDQIQLTQAQLEERQAEMEGAVQSIQGELSKLGKAHATTSNTVSKLLEKVRKVSVNVKTVRGSLERQAGQIKKLEVNEAELLRRRNFKVMIYQDEVKLPAKLSISKSLKESEALPEKEGEELGEGERPEEDAAALELSSDEAVEVEEVIEESRAERIKRSGLRRVDDFKKAFSKEKMEKTKVRTRENLEKTRLKTKENLEKTRHTLEKRMNKLGTRLVPAERREKLKTSRDKLRKSFTPDHVVYARSKTAVYKVPPFTFHVKKIREGQVEVLKATEMVEVGADDDEGGAERGEAGDLRRGSSPDVHALLEITEESDAVLVDKSDSD
notes: whole, on cells; Intracellular protein; endogenous in cell extracts or full length expressed from pCMVpuro-Cavin-1 in COS-7 cells; also called endogenous Cavin-1; pCMVpuro-Cavin-1-WT

Legend:
NCI-H1975 cells = conditions: cited from earlier work
PC-9 cells = conditions: cited from earlier work
PC-9 and NCI-H1975 = assay: Cell proliferation by colorimetry (cell counting kit-8) after siRNA transfection; assay type: cell-based, human; conditions: 120 hours after transfection
Procedure: Transfection of the siRNA (20 nM each) was conducted in accordance with the manufacturer's instruction manual using lipofectamine RNAiMAX (manufactured by Invitrogen). Cells were recovered 72 hours after transfection for Western blotting analysis. Cells were also recovered 120 hours after transfection for analysis by colorimetry to measure cell proliferation.
siControl or siROR1, siCavin-1, or siCAV1 was transfected against the PC-9 or NCI-H1975 cell line to investigate the effects of silencing of ROR1, Cavin-1, and CAV1 on cell proliferation. A reaction was conducted using a cell counting kit-8 (Dojindo) 120 hours after transfection, the absorbance was measured by a plate reader, and colorimetry was conducted. Furthermore, this experiment was conducted three separate times, and the average values were graphed.

CAV1 = assay: Western blotting of CAV1 expression after siRNA transfection in pulmonary adenocarcinoma cell lines; assay type: cell-based, human; conditions: siRNA 20 nM
Procedure: Western blotting analysis and IP-WB analysis were conducted by the standard methods using an Immobilon-P filter (manufactured by Millipore Corp.) and an enhanced chemiluminescence system (manufactured by GE Healthcare Inc.). pCMVpuro-Cavin-1-WT was coexpressed with various ROR1 expression constructs such as the wild type (WT), TKΔ473-564 (TKΔ1), TK564-655 (TKΔ2), TKΔ655-746 (TKΔ3), TKΔ473-655 (TKΔ1+×2), TKΔ564-746 (TKΔ2+Δ3), and TKΔ473-746 (TKA1+Δ2+A3) to identify the binding site of ROR1 and Cavin-1. pCMVpuro-CAV1-WT was coexpressed with ROR1 expression constructs such as the wild type (WT), TKΔ473-564 (TKΔ1), TKΔ564-655 (TKΔ2), TKΔ655-746 (TKΔ3), ST1Δ748-782 (ΔST1), PΔ784-851 (ΔP), and ST2Δ853 to 876 (ΔST2) to identify the binding site of ROR1 and CAV1. For these, the cells were recovered 24 hours after transfection by Fugene6 (Promega) using COS-7 cells, and IP-WB analysis was conducted.
Transfection of the siRNA (20 nM each) was conducted in accordance with the manufacturer's instruction manual using lipofectamine RNAiMAX (manufactured by Invitrogen). […] Cells were also recovered 120 hours after transfection for analysis by colorimetry to measure cell proliferation.

human Cavin-1 = molecular target: B3; assay: IP-WB of NCI-H1975 cell extract 24 hours after transfection of siROR1
[1] = molecular target: T1, human ROR1 (receptor tyrosine kinase-like orphan receptor 1) (human, UniProt Q01973 30-937); assay: IP-WB of ROR1 constructs coexpressed with CAV1 in COS-7 cells
T1 construct: whole, on cells; also called endogenous ROR1; ROR1-WT
Procedure: For these, the cells were recovered 24 hours after transfection by Fugene6 (Promega) using COS-7 cells, and IP-WB analysis was conducted.

[2] = molecular target: T1, human ROR1 (receptor tyrosine …); assay: IP-WB of endogenous proteins in octyl glucoside cell extracts
[3] = molecular target: T1, human ROR1 (receptor tyrosine …); assay: IP-WB of octyl glucoside extracts of NCI-H1975 and SK-LU-1 cells
[4] = NCI-H1975, 72 hours after transfection

T1 sequence (Q01973 30-937): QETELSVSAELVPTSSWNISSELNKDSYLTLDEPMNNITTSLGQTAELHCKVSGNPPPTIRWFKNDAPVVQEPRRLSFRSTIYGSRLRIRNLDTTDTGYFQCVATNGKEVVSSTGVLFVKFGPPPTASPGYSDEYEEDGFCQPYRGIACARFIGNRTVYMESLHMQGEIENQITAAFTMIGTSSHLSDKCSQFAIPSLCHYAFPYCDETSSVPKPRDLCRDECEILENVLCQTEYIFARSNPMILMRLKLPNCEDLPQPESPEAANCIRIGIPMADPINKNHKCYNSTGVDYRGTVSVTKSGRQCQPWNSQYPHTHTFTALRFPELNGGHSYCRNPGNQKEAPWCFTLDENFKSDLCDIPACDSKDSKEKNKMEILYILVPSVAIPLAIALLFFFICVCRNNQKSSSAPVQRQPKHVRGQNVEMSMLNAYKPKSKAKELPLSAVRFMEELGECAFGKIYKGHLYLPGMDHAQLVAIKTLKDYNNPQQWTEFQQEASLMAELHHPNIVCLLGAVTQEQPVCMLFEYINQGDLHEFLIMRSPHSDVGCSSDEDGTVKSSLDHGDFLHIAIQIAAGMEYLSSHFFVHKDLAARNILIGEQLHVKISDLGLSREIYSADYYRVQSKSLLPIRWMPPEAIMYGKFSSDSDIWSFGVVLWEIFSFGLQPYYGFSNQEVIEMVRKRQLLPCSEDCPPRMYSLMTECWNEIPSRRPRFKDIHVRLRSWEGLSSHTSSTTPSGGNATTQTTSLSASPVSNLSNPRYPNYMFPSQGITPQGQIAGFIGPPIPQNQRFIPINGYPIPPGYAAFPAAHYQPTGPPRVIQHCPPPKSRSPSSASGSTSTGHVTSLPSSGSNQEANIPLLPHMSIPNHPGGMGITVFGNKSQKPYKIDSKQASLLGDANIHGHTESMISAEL

Molecule: CC#CC(=O)Nc1ccc2ncnc(Nc3cccc(Br)c3)c2c1 [CL-387, 785]
sensitivity of cells to EGFR-TKI (NCI-H1975 cells; NCI-H1975 in the presence of HGF): resistance

Molecule: COc1cc2ncnc(Nc3ccc(F)c(Cl)c3)c2cc1OCCCN1CCOCC1 [gefitinib, Gefitinib]
sensitivity of cells to EGFR-TKI (NCI-H1975 cells; NCI-H1975 (EGFR T790M double mutation), no ligand): resistance
sensitivity of cells to EGFR-TKI (PC-9 cells; PC-9, no ligand): sensitive
sensitivity of cells to EGFR-TKI (PC-9 cells; PC-9 in the presence of HGF): resistance

Molecule: siCavin-1#2: RNA oligomer for RNAi against human Cavin-1, 5′-CCCGCCGAGCGGCGCGAGAAA-3′ (SEQ ID No: 19) (listed as RNA, further chemistry not given here)
cell proliferation (colorimetry) (PC-9 and NCI-H1975): inhibit cell proliferation

Molecule: siIGF-IR#2: RNA oligomer for RNAi against human IGF-IR, 5′-CUGACUACAGGGAUCUCAUUU-3′ (SEQ ID No: 17) (listed as RNA, further chemistry not given here)
CAV1 expression (Western blot) (CAV1; NCI-H358): downregulation of CAV1 was also found
CAV1 expression (Western blot) (CAV1; [4]): downregulate CAV1

Molecule: siIGF-IR#1: RNA oligomer for RNAi against human IGF-IR, 5′-GGAAUUGCAUGGUAGCCGAUU-3′ (SEQ ID No: 16) (listed as RNA, further chemistry not given here)
CAV1 expression (Western blot) (CAV1; NCI-H358): downregulation of CAV1 was also found
CAV1 expression (Western blot) (CAV1; [4]): downregulate CAV1

Molecule: siCavin-1#1: RNA oligomer for RNAi against human Cavin-1, 5′-CUCCAAGACCGCGGUCUACAA-3′ (SEQ ID No: 18) (listed as RNA, further chemistry not given here)
cell proliferation (colorimetry) (PC-9 and NCI-H1975): inhibit cell proliferation

binding result (human Cavin-1): binds
binding result [1]: binds
B1: human Caveolin 1 (other, UniProt Q03135 2-178, looked up)
chain: SGGKYVDSEGHLYTVPIREQGNIYKPNNKAMADELSEKQVYDAHTKEIDLVNRDPKHLNDDVVKIDFEDVIAEPEGTHSFDGIWKASFTTFTVTKYWFYRLLSALFGIPMALIWGIYFAILSFLHIWAVVPCIKSFLIEIQCISRVYSIYVHTVCDPLFEAVGKIFSNVRINLQKEI
notes: whole, on cells; Endogenous in cell extracts or full length expressed from pCMVpuro-CAV1 in COS-7 cells; also called CAV1; endogenous CAV1

binding result [2]: no binding
B2: Cavin-2 (other, human, UniProt O95810 2-425, looked up)
chain: GEDAAQAEKFQHPGSDMRQEKPSSPSPMPSSTPSPSLNLGNTEEAIRDNSQVNAVTVLTLLDKLVNMLDAVQENQHKMEQRQISLEGSVKGIQNDLTKLSKYQASTSNTVSKLLEKSRKVSAHTRAVKERMDRQCAQVKRLENNHAQLLRRNHFKVLIFQEENEIPASVFVKQPVSGAVEGKEELPDENKSLEETLHTVDLSSDDDLPHDEEALEDSAEEKVEESRAEKIKRSSLKKVDSLKKAFSRQNIEKKMNKLGTKIVSVERREKIKKSLTSNHQKISSGKSSPFKVSPLTFGRKKVREGESHAENETKSEDLPSSEQMPNDQEEESFAEGHSEASLASALVEGEIAEEAAEKATSRGSNSGMDSNIDLTIVEDEEEESVALEQAQKVRYEGSYALTSEEAERSDGDPVQPAVLQVHQTS
notes: whole, on cells; Detected with anti-Cavin-2 (Abcam) in IP-WB of cell extracts

Molecule: B3
binding result [3]: binds
